Test results reported in ChEMBL document CHEMBL5038654, “Discovery of Spiro-azaindoline Inhibitors of Hematopoietic Progenitor Kinase 1 (HPK1)” (ACS Med Chem Lett, 2022).

Key:
[1] = target: Cytochrome P450 3A4 (Homo sapiens, UniProt P08684); assay: Inhibition of CYP3A4 in human liver microsomes using testosterone as substrate by TDI- high-throughput based mass spectrometry method; assay type: ADME
[2] = target: T1, Mitogen-activated protein kinase kinase kinase kinase 1 (Homo sapiens, UniProt Q92918); assay: Inhibition of HPK1 (unknown origin) followed by anti-GST antibody incubated for 60 mins measured after 1 hr by TR-FRET based LanthaScreen Eu-Kinase binding assay
[3] = Metabolic stability in rat liver microsomes assessed as intrinsic clearance followed by substrate addition incubated for 30 mins by LC-MS/MS analysis; assay type: ADME, Microsome; settings: read-out: CLH
[4] = Metabolic stability in human liver microsomes assessed as intrinsic clearance followed by substrate addition incubated for 30 mins by LC-MS/MS analysis; assay type: ADME, Microsome; settings: read-out: CLH
[5] = Metabolic stability in mouse liver microsomes assessed as intrinsic clearance followed by substrate addition incubated for 30 mins by LC-MS/MS analysis; assay type: ADME, Microsome; settings: read-out: CLH
[6] = Apparent permeability across apical to basolateral side in dog MDCK1 cells at 10 uM by LC-MS/MS analysis; assay type: ADME, cell-based, Canis lupus familiaris; settings: for Papp A→B at 10 µM: MDCK
[7] = target: T1, Mitogen-activated protein kinase kinase kinase kinase 1; assay: Inhibition of HPK1 in human Jurkat E6.1 cells assessed as SLP76 phosphorylation incubated for 30 mins followed by anti-CD3, biotinylated anti-SLP76 and TMB substrate addition measured after 3 hrs by ELISA assay; assay type: cell-based
[8] = target: T1, Mitogen-activated protein kinase kinase kinase kinase 1; assay: Inhibition of HPK1 (unknown origin) preincubated for 30 mins with compound followed by Biotin-SLP-76 substrate in presence of ATP incubated for 60 mins measured after 1 hr by TR-FRET based HTRF enzymatic assay
[9] = tested on: T-cell line; assay: Effects of compound on IL-2 production in human pan T-cells followed by anti-CD3/CD28-stimulation assessed as increase in IL-2 level incubated for 30 mins by ELISA method; assay type: functional, cell-based; settings: 0.5 h
[10] = Metabolic stability in human hepatocytes assessed as hepatic clearance at 1 uM measured upto 3 hrs by LC-MS/MS analysis; assay type: ADME, cell-based, Hepatocyte
[11] = Metabolic stability in mouse hepatocytes assessed as hepatic clearance; assay type: ADME, cell-based, Hepatocyte; design: dose or concentration left out as unconfirmed
[12] = Oral bioavailability in female C57BL/6 mouse at 25 mg/kg measured upto 24 hrs by LC-MS/MS analysis; assay type: ADME, organism-based; settings: in vivo
[13] = Volume of distribution in female C57BL/6 mouse at 1 mg/kg, iv administered as bolus dose measured upto 24 hrs by LC-MS/MS analysis; assay type: ADME, organism-based; settings: in vivo
[14] = Blood clearance in female C57BL/6 mouse at 1 mg/kg, iv administered as bolus dose measured upto 24 hrs by LC-MS/MS analysis; assay type: ADME, organism-based; settings: whole blood
[15] = Metabolic stability in rat hepatocytes assessed as hepatic clearance; assay type: ADME, cell-based, Hepatocyte; design: dose or concentration left out as unconfirmed

T1 sequence (Q92918 whole entry): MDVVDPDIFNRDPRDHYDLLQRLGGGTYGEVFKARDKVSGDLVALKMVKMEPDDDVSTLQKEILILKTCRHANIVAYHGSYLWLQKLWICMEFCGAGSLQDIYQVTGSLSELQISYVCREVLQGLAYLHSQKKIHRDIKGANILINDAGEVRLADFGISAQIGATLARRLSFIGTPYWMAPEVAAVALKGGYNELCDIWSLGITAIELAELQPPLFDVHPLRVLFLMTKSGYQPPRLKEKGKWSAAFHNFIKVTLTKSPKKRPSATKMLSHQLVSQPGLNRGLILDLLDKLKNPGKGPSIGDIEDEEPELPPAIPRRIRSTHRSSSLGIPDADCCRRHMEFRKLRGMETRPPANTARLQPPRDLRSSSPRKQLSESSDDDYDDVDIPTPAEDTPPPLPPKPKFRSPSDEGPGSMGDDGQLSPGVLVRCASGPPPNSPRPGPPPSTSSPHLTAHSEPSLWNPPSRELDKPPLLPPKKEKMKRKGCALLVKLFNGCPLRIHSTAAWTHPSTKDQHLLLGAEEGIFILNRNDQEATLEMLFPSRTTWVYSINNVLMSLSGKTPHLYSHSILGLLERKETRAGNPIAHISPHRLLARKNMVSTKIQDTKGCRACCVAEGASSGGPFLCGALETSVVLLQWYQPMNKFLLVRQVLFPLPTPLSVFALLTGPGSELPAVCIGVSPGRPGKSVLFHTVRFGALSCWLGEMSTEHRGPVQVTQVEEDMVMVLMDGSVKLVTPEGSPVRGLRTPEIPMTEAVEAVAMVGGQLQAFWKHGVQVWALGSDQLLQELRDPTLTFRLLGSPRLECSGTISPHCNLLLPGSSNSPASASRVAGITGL
Chain of Cytochrome P450 3A4 (P08684 whole entry): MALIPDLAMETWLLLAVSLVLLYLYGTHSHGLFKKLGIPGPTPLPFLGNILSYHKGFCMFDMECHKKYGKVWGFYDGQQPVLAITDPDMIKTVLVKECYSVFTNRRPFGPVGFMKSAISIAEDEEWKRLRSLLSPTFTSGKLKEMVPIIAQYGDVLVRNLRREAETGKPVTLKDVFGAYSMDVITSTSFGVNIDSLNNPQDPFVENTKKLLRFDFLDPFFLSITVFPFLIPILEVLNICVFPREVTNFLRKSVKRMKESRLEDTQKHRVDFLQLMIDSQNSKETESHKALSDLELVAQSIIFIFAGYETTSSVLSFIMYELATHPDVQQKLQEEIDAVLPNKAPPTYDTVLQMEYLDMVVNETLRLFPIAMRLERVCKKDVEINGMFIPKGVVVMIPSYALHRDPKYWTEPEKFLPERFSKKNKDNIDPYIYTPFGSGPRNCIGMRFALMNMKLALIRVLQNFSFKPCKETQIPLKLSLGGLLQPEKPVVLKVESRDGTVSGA

Structure (SMILES) | IC50 [1] | Ki [2] | Papp A→B at 10 µM [6] | IC50 [7] | also measured
CN(C)C(=O)c1cc(-c2cnc3c(c2)C2(CCCC2)CN3)ccc1N | 9.8 µM | 0.028 µM |  |  | 
CCc1c[nH]c2ncc(-c3ccc(N)c(C(=O)N(C)C)n3)cc12 | 1.6 µM | 0.0033 µM |  |  | predicted hepatic clearance [3]: 28 mL/min/kg; predicted hepatic clearance [4]: 17 mL/min/kg; predicted hepatic clearance [5]: 81 mL/min/kg
CCc1c[nH]c2ncc(-c3ccc(N)c(C(=O)N(C)C)c3)c(Cl)c12 |  | 0.0026 µM |  |  | 
CCc1c[nH]c2ncc(-c3cccc(C(=O)N(C)C)c3)cc12 | 1.7 µM | 0.0052 µM |  |  | predicted hepatic clearance [3]: 43 mL/min/kg; predicted hepatic clearance [4]: 18 mL/min/kg; predicted hepatic clearance [5]: 84 mL/min/kg
CN(C)C(=O)c1c(N)ccc(-c2cnc3c(c2Cl)[C@]2(CC[C@](C)(C#N)CC2)CN3)c1F |  |  | 26 ×10⁻⁶ cm/s | 7.9 µM | 
CN(C)C(=O)c1c(N)ccc(-c2cnc3c(c2Cl)C2(CCC2)CN3)c1F | > 10 µM |  |  |  | 
Cc1c(-c2ccc(N)c(C(=O)N(C)C)c2F)cnc2c1C1(CC1)CN2 | 6.5 µM | 0.043 µM |  |  | 
CCc1c[nH]c2ncc(-c3ccc(N)c(C(=O)N(C)C)c3)c(CC)c12 |  | 0.0028 µM |  |  | 
CN(C)C(=O)c1c(N)ccc(-c2cnc3c(c2Cl)[C@@]2(CC[C@@](C)(C(N)=O)C2)CN3)c1F |  | 0.085 µM | 0.4 ×10⁻⁶ cm/s | > 25 µM | 
COc1ccccc1-c1c[nH]c2ncc(-c3ccc(N)c(C(=O)N(C)C)c3)cc12 |  | 0.0004 µM |  |  | 
CN(C)C(=O)c1c(N)ccc(-c2cnc3c(c2Cl)[C@]2(CC[C@@]4(CCCCNC4=O)C2)CN3)c1F |  |  | 6.5 ×10⁻⁶ cm/s | 1.2 µM | Ki [8]: 0.0072 µM
CN(C)C(=O)c1c(N)ccc(-c2cnc3c(c2Cl)[C@]2(CC[C@](C)(C(N)=O)C2)CN3)c1F |  | 0.0008 µM |  | 0.44 µM | EC50 [9]: 1.56 µM; CLhep predicted at 1 µM [10]: 9.5 mL/min/kg; CLhep predicted [11]: 33 mL/min/kg; bioavailability [12]: 13%; Vd [13]: 1.9 L/kg; Papp ([6]; mdck1, 10 µM): 0.3 10^-6 cm/s; clearance [14]: 57 mL/min/kg; CLhep predicted [15]: 18 mL/min/kg
CCc1c[nH]c2ncc(-c3ccc(N)c(C(=O)N(C)C)c3)c(C)c12 |  | 0.0024 µM |  |  | 
CN(C)C(=O)c1c(N)ccc(-c2cnc3c(c2Cl)[C@]2(CC[C@](C)(O)CC2)CN3)c1F |  | 0.0082 µM | 5.7 ×10⁻⁶ cm/s | 3 µM | 
CCc1c(Cl)[nH]c2ncc(-c3ccc(N)c(C(=O)N(C)C)c3)cc12 | 0.2 µM | 0.0027 µM |  |  | 
CCc1c[nH]c2ncc(-c3ccc(N)c(C(=O)N(C)C)c3)cc12 | 0.5 µM | 0.0021 µM |  |  | predicted hepatic clearance [3]: 25 mL/min/kg; predicted hepatic clearance [4]: 12 mL/min/kg; predicted hepatic clearance [5]: 80 mL/min/kg
CN(C)C(=O)c1c(N)ccc(-c2cnc3c(c2Cl)[C@]2(CC[C@@]4(CCCNC4=O)C2)CN3)c1F |  |  | 7.1 ×10⁻⁶ cm/s | 1.7 µM | Ki [8]: 0.0065 µM
CN(C)C(=O)c1cc(-c2cnc3c(c2)C2(CCC2)CN3)ccc1N | > 10 µM | 0.066 µM |  |  | 
CN(C)C(=O)c1cc(-c2cnc3c(c2)C2(CC2)CN3)ccc1N | > 10 µM | 0.033 µM |  |  | 
CCc1c[nH]c2ncc(-c3ccc(N)c(C(=O)N(C)C)c3F)cc12 | 0.7 µM | 0.00047 µM |  |  | predicted hepatic clearance [3]: 37 mL/min/kg; predicted hepatic clearance [4]: 16 mL/min/kg; predicted hepatic clearance [5]: 80 mL/min/kg
CN(C)C(=O)c1c(N)ccc(-c2cnc3c(c2Cl)C2(CCCC2)CN3)c1F | 0.8 µM | 0.0025 µM | 23 ×10⁻⁶ cm/s | 1.5 µM | 
CN(C)C(=O)c1cc(-c2cnc3[nH]ccc3c2)ccc1N |  | 0.0015 µM |  |  | 
CNC(=O)[C@H]1CC[C@@]2(CNc3ncc(-c4ccc(N)c(C(=O)N(C)C)c4F)c(Cl)c32)C1 (racemic) |  | 0.063 µM | 0.8 ×10⁻⁶ cm/s | 7.4 µM | 
CN(C)C(=O)c1c(N)ccc(-c2cnc3c(c2Cl)[C@]2(CC[C@](C)(C(N)=O)C2)CN3)c1F (racemic) |  | 0.002 µM | 0.3 ×10⁻⁶ cm/s | 1.1 µM | 
CN(C)C(=O)c1c(N)ccc(-c2cnc3c(c2Cl)[C@]2(CC[C@H](c4ncn[nH]4)C2)CN3)c1F (racemic) |  | 0.014 µM | 0.4 ×10⁻⁶ cm/s | 15 µM | 
CN(C)C(=O)c1c(N)ccc(-c2cnc3c(c2Cl)[C@]2(CC[C@H](C(N)=O)C2)CN3)c1F (racemic) |  | 0.0018 µM | 0.2 ×10⁻⁶ cm/s | 14 µM | 
CN(C)C(=O)c1c(N)ccc(-c2cnc3c(c2Cl)[C@]2(CC[C@H](O)C2)CN3)c1F (racemic) |  |  | 5 ×10⁻⁶ cm/s | 5 µM | 
CN(C)C(=O)c1c(N)ccc(-c2cnc3c(c2Cl)[C@]2(CC[C@](C)(C#N)C2)CN3)c1F (racemic) |  | 0.011 µM | 21 ×10⁻⁶ cm/s | 1.7 µM | 
CN(C)C(=O)c1c(N)ccc(-c2cnc3c(c2Cl)[C@]2(CC[C@](C)(O)C2)CN3)c1F (racemic) |  | 0.0081 µM | 4.1 ×10⁻⁶ cm/s | 2 µM | 
